Results taken from patent US20100298300A1, “TRIAZOLOPYRAZINE COMPOUNDS USEFUL FOR THE TREATMENT OF DEGENERATIVE & INFLAMMATORY DISEASES” (priority 2006, published 2010).

Experiments:
[1] = system: MMP1 expression by activated primary synovial fibroblasts; experiment: 'MMP assay': MMP1 expression by complex trigger activated synovial fibroblasts (MMP1 ELISA); format: cell-based; details: Homo sapiens, Fibroblast; for EC50: RASFs, complex trigger, 48 hrs, MMP1 ELISA
MAPKAPK5 = target: T1, MAPKAPK5 (Homo sapiens, UniProt Q8IW41); experiment: MAPKAP-K5 assay (FlashPlate kinase assay)
T1 sequence (Q8IW41 1-471 isoform Q8IW41-2): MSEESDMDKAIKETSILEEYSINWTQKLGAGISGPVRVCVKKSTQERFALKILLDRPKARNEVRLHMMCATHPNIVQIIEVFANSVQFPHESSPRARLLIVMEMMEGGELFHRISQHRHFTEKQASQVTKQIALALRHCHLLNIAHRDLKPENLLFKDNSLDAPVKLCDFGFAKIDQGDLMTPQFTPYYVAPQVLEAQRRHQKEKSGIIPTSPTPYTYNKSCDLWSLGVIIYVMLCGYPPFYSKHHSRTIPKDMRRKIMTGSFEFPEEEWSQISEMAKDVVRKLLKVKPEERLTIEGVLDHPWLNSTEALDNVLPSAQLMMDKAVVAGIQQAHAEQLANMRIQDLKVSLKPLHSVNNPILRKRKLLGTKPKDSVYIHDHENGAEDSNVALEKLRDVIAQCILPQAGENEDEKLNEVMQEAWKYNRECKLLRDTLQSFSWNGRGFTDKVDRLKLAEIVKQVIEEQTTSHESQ

| IC50 (MAPKAPK5) [nM] | SMILES | EC50 ([1]; Table 4) [nM] | EC50 ([1]; Table 3) [nM] | IC50 ([1]; complex trigger activated SFs, 48 hrs after treatment, FIG. 3, read-out: IC50 of reduction of MMP1 expression by SFs) [nM] |
| --- | --- | --- | --- | --- |
| 501 to 1000 | CC1(C)OCC(CNC(=O)c2ccc(Nc3ncc(-c4cn[nH]c4)n4ncnc34)cc2)O1 (centres unmarked) [Compound 161] | > 1000 |  |  |
| > 1000 | CC(C)N1CCN(c2ccc(Nc3ncc(-c4cc5c(cn4)C(=O)NC5)n4ncnc34)cc2)CC1 [Compound 173] |  | > 1000 |  |
| 501 to 1000 | CC(C)N(CCNC(=O)c1ccc(Nc2ncc(-c3cn[nH]c3)n3ncnc23)cc1)C(C)C [Compound 162] | > 1000 |  |  |
| 101 to 500 | CC(C)N1CCN(c2ccc(Nc3ncc(-c4csc(C(N)=O)c4)n4ncnc34)cn2)CC1 [Compound 55, 4-{8-[6-(4-Isopropylpiperazin-1-yl)pyridin-3-ylamino]-[1,2,4]triazolo[1,5-a]pyrazin-5-yl}thiophene-2-carboxylic acid amide] |  | 101 to 500 |  |
| 501 to 1000 | O=C(c1ccc(Nc2ncc(-c3cn[nH]c3)n3ncnc23)cc1)N1CCN(Cc2ccc(F)cc2)CC1 [Compound 144] |  |  |  |
| 501 to 1000 | CC(C)N1CCN(C(=O)c2cccc(Nc3ncc(-c4cn[nH]c4)n4ncnc34)c2)CC1 [Compound 127, (4-Isopropylpiperazin-1-yl)-{3-[5-(1H-pyrazol-4-yl)-[1,2,4]triazolo[1,5-a]pyrazin-8-ylamino]phenyl}methanone] | > 1000 |  |  |
| > 1000 | NC(=O)c1cccc2c(-c3cnc(Nc4ccc(N5CCOCC5)cc4)c4ncnn34)csc12 [Compound 80, 3-[8-(4-Morpholin-4-ylphenylamino)-[1,2,4]triazolo[1,5-a]pyrazin-5-yl]-benzo[b]thiophene-7-carboxylic acid amide] |  | 101 to 500 |  |
| > 1000 | O=C(c1ccc(Nc2ncc(-c3cn[nH]c3)n3ncnc23)cc1)N1CCC(N2CCCCC2)CC1 [Compound 165] | > 1000 |  |  |
| > 1000 | Cc1sc(C(N)=O)cc1-c1cnc(Nc2ccc(N3CCN(C(C)C)CC3)nc2)c2ncnn12 [Compound 96] |  | > 1000 |  |
| > 1000 | CC(C)N1CCN(c2ccc(Nc3ncc(-c4cccc5c4CNC5=O)n4ncnc34)cn2)CC1 [Compound 98] |  | > 1000 |  |
| 501 to 1000 | CC(=O)N(C)C1CCN(C(=O)c2ccc(Nc3ncc(-c4cn[nH]c4)n4ncnc34)cc2)C1 (centres unmarked) [Compound 143] | > 1000 |  |  |
| > 1000 | O=C(Nc1ccc(Nc2ncc(-c3cn[nH]c3)n3ncnc23)cn1)c1ccccc1 [Compound 135] |  |  |  |
| 501 to 1000 | O=C(c1ccc(Nc2ncc(-c3cn[nH]c3)n3ncnc23)cc1)N1CCN(c2ccccn2)CC1 [Compound 148] | > 1000 |  |  |
| > 1000 | O=C(c1cccc(Nc2ncc(-c3cn[nH]c3)n3ncnc23)c1)N1CCCC1 [Compound 126] | > 1000 |  |  |
| > 1000 | CC(C)N1CCN(c2ccc(Nc3ncc(-c4ccnc(CO)c4)n4ncnc34)cc2)CC1 [Compound 83, (4-{8-[4-(4-Isopropylpiperazin-1-yl)-phenylamino]-[1,2,4]triazolo[1,5-a]pyrazin-5-yl}pyridin-2-yl)methanol] |  | > 1000 |  |
| > 1000 | CN(Cc1ccccc1)C(=O)c1cccc(Nc2ncc(-c3cn[nH]c3)n3ncnc23)c1 [Compound 134, N-Benzyl-N-methyl 3-[5-(1H-pyrazol-4-yl)-[1,2,4]triazolo[1,5-a]pyrazin-8-ylamino]benzamide] | 501 to 1000 |  |  |
| 501 to 1000 | CC(C)NC(=O)CN1CCN(C(=O)c2ccc(Nc3ncc(-c4cn[nH]c4)n4ncnc34)cc2)CC1 [Compound 155] | > 1000 |  |  |
|  | CCN1CCC[C@H]1CNC(=O)c1ccc(Nc2ncc(-c3cn[nH]c3)n3ncnc23)cc1 [Compound 163] | > 1000 |  |  |
| 1 to 100 | CC(C)N1CCCN(c2ccc(Nc3ncc(-c4ccc5c(c4)CNC5=O)n4ncnc34)cc2)CC1 [Compound 188] |  |  |  |
| > 1000 | OCc1cc(-c2cnc(Nc3ccc(N4CCOCC4)cc3)c3ncnn23)ccn1 [Compound 82] |  | > 1000 |  |
| 501 to 1000 | COCCN1CCN(C(=O)c2ccc(Nc3ncc(-c4cn[nH]c4)n4ncnc34)cc2)CC1 [Compound 150] | > 1000 |  |  |
| 501 to 1000 | O=C(c1ccc(Nc2ncc(-c3cn[nH]c3)n3ncnc23)cc1)N1CC=CCC1 [Compound 159] | > 1000 |  |  |
| > 1000 | O=C(NCC1CC1)c1ccc(Nc2ncc(-c3cn[nH]c3)n3ncnc23)cc1 [Compound 142] | > 1000 |  |  |
| 501 to 1000 | CCOCCN1CCN(C(=O)c2ccc(Nc3ncc(-c4cn[nH]c4)n4ncnc34)cc2)CC1 [Compound 141] | > 1000 |  |  |
| 101 to 500 | CC(C)N1CCN(c2ccc(Nc3ncc(-c4ccc5c(c4)CNC5=O)n4ncnc34)cc2)C(=O)C1 [Compound 112, 5-(8-(4-(4-Isopropyl-2-oxopiperazin-1-yl)phenylamino)-[1,2,4]triazolo[1,5-a]pyrazin-5-yl)isoindolin-1-one] |  | > 1000 |  |

| IC50 (MAPKAPK5) [nM] | SMILES | EC50 ([1]; Table 4) [nM] | EC50 ([1]; Table 3) [nM] | IC50 ([1]; complex trigger activated SFs, 48 hrs after treatment, FIG. 3, read-out: IC50 of reduction of MMP1 expression by SFs) [nM] |
| --- | --- | --- | --- | --- |
| 501 to 1000 | CSCCNC(=O)c1ccc(Nc2ncc(-c3cn[nH]c3)n3ncnc23)cc1 [Compound 160] | > 1000 |  |  |
| > 1000 | CCN(CC)C(=O)c1cccc(Nc2ncc(-c3cn[nH]c3)n3ncnc23)c1 [Compound 125] | > 1000 |  |  |
| > 1000 | CCOC(=O)CN(Cc1ccccc1)C(=O)c1ccc(Nc2ncc(-c3cn[nH]c3)n3ncnc23)cc1 [Compound 154] | > 1000 |  |  |
| 101 to 500 | O=C(N[C@@H]1CCN(Cc2ccccc2)C1)c1ccc(Nc2ncc(-c3ccc4c(c3)CNC4=O)n3ncnc23)cc1 [Compound 195] | > 1000 |  |  |
| > 1000 | O=C(Nc1ccc(N2CCOCC2)nc1)c1ccc(Nc2ncc(-c3cn[nH]c3)n3ncnc23)cc1 [Compound 194] | 501 to 1000 |  |  |
| > 1000 | O=C1NCc2cc(-c3cnc(NC4CCNCC4)c4ncnn34)ccc21 [Compound 185] |  | > 1000 |  |
| > 1000 | O=C(NCc1cc(-c2ccccc2)on1)c1ccc(Nc2ncc(-c3ccc4c(c3)CNC4=O)n3ncnc23)cc1 [Compound 197] | > 1000 |  |  |
| 501 to 1000 | CCN1CCCC1CNC(=O)c1ccc(Nc2ncc(-c3cn[nH]c3)n3ncnc23)cc1 (centres unmarked) [Compound 139] | > 1000 |  |  |
| 501 to 1000 | O=C(NCC1CCCO1)c1ccc(Nc2ncc(-c3cn[nH]c3)n3ncnc23)cc1 (centres unmarked) [Compound 158] | > 1000 |  |  |
| 501 to 1000 | NC(=O)c1cc(-c2cnc(Nc3ccc(NC(=O)Cc4ccccc4)nc3)c3ncnn23)cs1 [Compound 167, 4-[8-(6-Phenylacetylamino-pyridin-3-ylamino)-[1,2,4]triazolo[1,5-a]pyrazin-5-yl]-thiophene-2-carboxylic acid amide] | > 1000 |  |  |
| > 1000 | Cc1sc(C(N)=O)cc1-c1cnc(Nc2ccc(N3CCN(C(C)C)CC3)cc2)c2ncnn12 [Compound 95] |  | > 1000 |  |
| > 1000 | O=C(NCCc1ccc(O)cc1)c1ccc(Nc2ncc(-c3cn[nH]c3)n3ncnc23)cc1 [Compound 151] | > 1000 |  |  |
| > 1000 | O=C1CN(c2ccc(Nc3ncc(-c4cn[nH]c4)n4ncnc34)cc2)CCN1 [Compound 177] |  | > 1000 |  |
| > 1000 | NC(=O)c1cccc(Nc2ncc(-c3cn[nH]c3)n3ncnc23)c1 [Compound 128] | > 1000 |  |  |
| > 1000 | CC(C)N1CCN(c2ccc(Nc3ncc(-c4cccc5c4CNC5=O)n4ncnc34)cc2)CC1 [Compound 97] |  | > 1000 |  |
| > 1000 | CC(C)N1CCCN(c2ccc(Nc3ncc(-c4cn[nH]c4)n4ncnc34)cc2)CC1 [Compound 187] |  |  |  |
| > 1000 | CC(C)N1CCC(Nc2ncc(-c3ccc4c(c3)CNC4=O)n3ncnc23)CC1 [Compound 186] |  |  |  |
| > 1000 | O=C(NCc1cccnc1)c1ccc(Nc2ncc(-c3cc[nH]c(=O)c3)n3ncnc23)cc1 [Compound 119, 4-(5-(2-Oxo-1,2-dihydropyridin-4-yl)-[1,2,4]triazolo[1,5-a]pyrazin-8-ylamino)-N-(pyridin-3-ylmethyl)benzamide] | > 1000 |  |  |
| 101 to 500 | O=C(N[C@H]1CCN(Cc2ccccc2)C1)c1ccc(Nc2ncc(-c3ccc4c(c3)CNC4=O)n3ncnc23)cc1 [Compound 196] | > 1000 |  |  |
| > 1000 | CC(C)N1CCN(c2ccc(Nc3ncc(-c4ccc5c(c4)C(C)(C)NC5=O)n4ncnc34)cc2)CC1 [Compound 114, 5-{8-[4-(4-Isopropylpiperazin-1-yl)-phenylamino]-[1,2,4]triazolo[1,5-a]pyrazin-5-yl}-3,3-dimethyl-2,3-dihydroisoindol-1-one] |  | > 1000 |  |
|  | C[C@@H]1C[C@H]2[C@@H]3CCC4=CC(=O)C=C[C@]4(C)[C@@]3(F)[C@@H](O)C[C@]2(C)[C@@]1(O)C(=O)CO [dexamethasone, reference compound] |  |  | ~1 |
| > 1000 | O=C(N[C@H]1CCN(Cc2ccccc2)C1)c1ccc(Nc2ncc(-c3cn[nH]c3)n3ncnc23)cc1 [Compound 191] |  |  |  |
| > 1000 | CC(C)N1CCN(c2ccc(Nc3ncc(-c4ccc5cn[nH]c5c4)n4ncnc34)cc2)CC1 [Compound 106] |  |  |  |
| 1 to 100 | COCCN1CCC(c2ccc(Nc3ncc(-c4ccc5c(c4)CNC5=O)n4ncnc34)cc2)CC1 [Compound 189] |  |  |  |
|  | CN(C)Cc1cc(Nc2ncc(-c3ccc4c(c3)CNC4=O)n3ncnc23)ccc1N1CCOCC1 [Compound 175] |  | > 1000 |  |
